From PubChem BioAssay (NCI) come the findings set out here.

Structures are written as SMILES.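 Test compounds were applied to cells in 96-well plates for 48 hours at 5 doses. GI50 is the concentration that inhibits growth by half. At the TGI there is no net growth.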 Bounds are passed on as bounds.

Some test systems named below: NCI-H23 lung; SW-620 colon; KM20L2 colon; DMS 114 small cell lung; NCI-H522 lung; SR leukemia; HOP-62 NSCLC; EKVX NSCLC; MOLT-4 leukemia; MDA-MB-435.
Assay in all cases: growth of human tumour cells (NCI), 48 h

On to `CC(=O)OCc1c(C)c2ccccc2n1C(C)=O`, for which the TGI in the assay on NCI-H23 lung was greater than 100 µM; in the assay with SW-620 colon it was greater than 100 µM; in the assay on KM20L2 colon, greater than 100 µM; in the assay on DMS 114 small cell lung, 47 µM; in the assay with NCI-H522 lung, 39.2 µM; in the assay with SR leukemia, 76.1 µM. In addition, the figures for the TGI in the assay on HOP-62 NSCLC, in the assay with EKVX NSCLC and in the assay with MOLT-4 leukemia were greater than 100 µM, greater than 100 µM and 86.7 µM, respectively.

Regarding `N#Cc1nc(Nc2ccc(Cl)cc2)sc1N`, the TGI is 13.2 µM in the assay on NCI-H23 lung; greater than 69.1 µM in the assay with SW-620 colon; greater than 52 µM in the assay on KM20L2 colon; 73.7 µM in the assay on DMS 114 small cell lung; 11.3 µM in the assay with NCI-H522 lung; 11.6 µM in the assay on SR leukemia. The TGI in the assay with HOP-62 NSCLC came out at 46 µM; with EKVX NSCLC, 83.2 µM; in the assay on MOLT-4 leukemia it was 29.2 µM.

As for `Cc1ccc(S(=O)(=O)NC(=O)C#CCOC2CCCCO2)cc1` (centres undefined), the TGI in the assay on NCI-H23 lung, in the assay with SW-620 colon, in the assay with KM20L2 colon, in the assay with DMS 114 small cell lung, in the assay with SR leukemia and with EKVX NSCLC was greater than 100 µM in each case. In the assay with MOLT-4 leukemia, this compound registered a TGI greater than 100 µM.

On to `O=C(CC(=O)c1cccc([N+](=O)[O-])c1)C(=O)Nc1nc([N+](=O)[O-])cs1`, for which the TGI in the assay on NCI-H23 lung, with SW-620 colon, with KM20L2 colon, with DMS 114 small cell lung, with NCI-H522 lung and in the assay with SR leukemia was greater than 100 µM in each case. Also, the TGI in the assay on HOP-62 NSCLC, in the assay on EKVX NSCLC and with MOLT-4 leukemia was greater than 100 µM throughout.

With `N#CC(C(=O)C(=O)Nc1ccc(Cl)c(Cl)c1)c1ccc(Cl)cc1` (centres undefined), the TGI in the assay on NCI-H23 lung is greater than 100 µM; in the assay on SW-620 colon, 30.8 µM; in the assay on KM20L2 colon, greater than 100 µM; in the assay with DMS 114 small cell lung, 45.7 µM; in the assay with NCI-H522 lung, 65.5 µM; with SR leukemia it was greater than 100 µM. The TGI in the assay with HOP-62 NSCLC, with EKVX NSCLC and with MOLT-4 leukemia was greater than 100 µM in each case.

As to `CC(C)N(C(=O)C12C3C4C5C3C1(C#N)C5C42)C(C)C` (centres undefined), the TGI with NCI-H23 lung, with SW-620 colon, in the assay on KM20L2 colon, with DMS 114 small cell lung, in the assay with NCI-H522 lung and in the assay on SR leukemia was greater than 100 µM each time. Moreover, the TGI in the assay with HOP-62 NSCLC, in the assay with EKVX NSCLC and in the assay on MOLT-4 leukemia was greater than 100 µM each time.

Turning to `COc1ccc2c([nH]c3cc(O)c(C)cc32)c1CC=C(C)C`, the GI50 with SW-620 colon is 6.75 µM; in the assay on KM20L2 colon it was 16.3 µM; with NCI-H522 lung, 5.92 µM; with SR leukemia, 7.19 µM; with MOLT-4 leukemia, 4.94 µM. Further, the TGI was 20.7 µM in the assay on SW-620 colon; greater than 25 µM with KM20L2 colon; greater than 25 µM in the assay with DMS 114 small cell lung; 17.3 µM in the assay on NCI-H522 lung; greater than 25 µM in the assay on SR leukemia; 15.9 µM in the assay with MOLT-4 leukemia.

On to `NC(=O)OCC(COc1ccc(Cl)cc1)OC(=O)c1cc([N+](=O)[O-])cc([N+](=O)[O-])c1` (centres undefined), for which the TGI with NCI-H23 lung was greater than 100 µM; with SW-620 colon, 27.6 µM; in the assay with KM20L2 colon, greater than 100 µM; in the assay with DMS 114 small cell lung, 53.8 µM; with NCI-H522 lung it was greater than 100 µM; in the assay with SR leukemia, greater than 100 µM. For the same compound, the TGI in the assay on HOP-62 NSCLC, with EKVX NSCLC and in the assay on MOLT-4 leukemia was greater than 100 µM each time.

As to `COC(=O)C1=C(C)N(NC(=O)c2cccc(Cl)c2)C(C)(O)C12CCOC2=O` (centres undefined), the TGI with SW-620 colon, with KM20L2 colon, with DMS 114 small cell lung, with NCI-H522 lung, in the assay on SR leukemia and in the assay with HOP-62 NSCLC was greater than 100 µM in each case. Also, the TGI with EKVX NSCLC and with MOLT-4 leukemia was greater than 100 µM each time.

Take `C/C=C/C=C\C(=O)C1c2cccc(O)c2C(=O)c2c(O)cc(C)cc21` (centres undefined): the TGI with NCI-H23 lung is 3.65 µM; with SW-620 colon it was 2.55 µM; in the assay on KM20L2 colon it was 3.94 µM; in the assay on DMS 114 small cell lung, 1.39 µM; in the assay with NCI-H522 lung, 3.06 µM; in the assay with HOP-62 NSCLC it was 4.27 µM. Further, the figures for the TGI in the assay with EKVX NSCLC and in the assay with MOLT-4 leukemia were 13.4 µM and 8.19 µM, respectively.

Regarding `CNC(=O)OCc1cc2ccncc2c2c1[nH]c1ccccc12`, the TGI was greater than 100 µM in the assay with NCI-H23 lung; greater than 100 µM with SW-620 colon; greater than 100 µM with KM20L2 colon; greater than 100 µM with DMS 114 small cell lung; greater than 100 µM in the assay on NCI-H522 lung; greater than 33.2 µM in the assay on SR leukemia. For the same compound, the TGI in the assay with HOP-62 NSCLC is 55 µM; in the assay on EKVX NSCLC, greater than 100 µM; with MOLT-4 leukemia it was greater than 85.3 µM.

For `C[C@]12CC/C(=N\OC(=O)Nc3ccccc3)C=C1CC[C@@H]1C2CC[C@@]2(C)C1CC[C@@H]2OC(=O)Nc1ccccc1` (some centres undefined), the TGI with NCI-H23 lung, with SW-620 colon, with KM20L2 colon, with DMS 114 small cell lung, with EKVX NSCLC and with MOLT-4 leukemia was greater than 100 µM each time.

Turning to `CCCC(=O)Nc1ncnc2c1ncn2C1OC2COP(=O)(O)OC2C1OC(=O)CCC` (centres undefined), the GI50 in the assay with NCI-H23 lung, in the assay on SW-620 colon, in the assay with NCI-H522 lung, in the assay with HOP-62 NSCLC, in the assay with EKVX NSCLC and with MOLT-4 leukemia was greater than 1000 µM throughout. Further, in the assay on MDA-MB-435, the GI50 was greater than 1000 µM. For the same compound, the TGI with NCI-H23 lung, in the assay on SW-620 colon, with NCI-H522 lung, with SR leukemia, with HOP-62 NSCLC and with EKVX NSCLC was greater than 1000 µM throughout. Moreover, the TGI in the assay on MOLT-4 leukemia and in the assay on MDA-MB-435 was greater than 1000 µM throughout.

As to `O=c1cc(-c2ccccc2)nc2cc(-c3ccco3)[nH]n12`, the GI50 is 13.2 µM with NCI-H23 lung; 4.51 µM with SW-620 colon; 6.77 µM with NCI-H522 lung; 3.14 µM in the assay with SR leukemia; 13.4 µM in the assay with HOP-62 NSCLC; 15.6 µM with EKVX NSCLC. Moreover, the values for the GI50 in the assay with MOLT-4 leukemia and in the assay with MDA-MB-435 were 10.7 µM and 1.97 µM, respectively. For the same compound, the TGI in the assay on NCI-H23 lung is 89.1 µM; in the assay with SW-620 colon it was greater than 100 µM; in the assay on NCI-H522 lung, 40.7 µM; with SR leukemia, 82.5 µM; in the assay with HOP-62 NSCLC, greater than 100 µM; with EKVX NSCLC it was 78.3 µM. In addition, the TGI in the assay with MOLT-4 leukemia is greater than 100 µM; in the assay on MDA-MB-435 it was 5.67 µM.
